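A five-concentration, 48-hour dose response in 96-well plates underlies each endpoint, interpolated linearly between surrounding concentrations. The concentration for 50% growth inhibition is given as GI50.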 Active and inactive are the calls of the source. No stated cut-off is given here; in the data, active = GI50 up to about 1.1 µM and inactive = higher. Where a SMILES comes first, the peptide text is derived from it. The star is where a group is joined. Cbz = O=C(OCc1ccccc1)*; Boc = CC(C)(C)OC(=O)*; tBu = CC(C)(C)*
Assays:
Assay in all cases: DTP human tumour cell line panel, 48 h
786-0 = test system: 786-0
A498 = test system: A498
A549 = test system: A549
ACHN = test system: ACHN
BT-549 = test system: BT-549
CAKI-1 = test system: CAKI-1
CCRF-CEM = test system: CCRF-CEM
COLO 205 = test system: COLO 205
DU-145 = test system: DU-145
EKVX = test system: EKVX
HCC 2998 = test system: HCC 2998
HCT-116 = test system: HCT-116
HCT-15 = test system: HCT-15
HOP-62 = test system: HOP-62
HOP-92 = test system: HOP-92
HT-29 = test system: HT-29
IGROV-1 = test system: IGROV-1
K562 = test system: K562
KM12 = test system: KM12
LOX IMVI = test system: LOX IMVI
M14 = test system: M14
MCF7 = test system: MCF7
MDA-MB-231 = test system: MDA-MB-231
MDA-MB-435 = test system: MDA-MB-435
MDA-N = test system: MDA-N
MOLT-4 = test system: MOLT-4
Malme-3M = test system: Malme-3M
NCI-H226 = test system: NCI-H226
NCI-H23 = test system: NCI-H23
NCI-H460 = test system: NCI-H460
NCI-H522 = test system: NCI-H522
NCI/ADR-RES = test system: NCI/ADR-RES
OVCAR-3 = test system: OVCAR-3
OVCAR-4 = test system: OVCAR-4
OVCAR-5 = test system: OVCAR-5
OVCAR-8 = test system: OVCAR-8
PC-3 = test system: PC-3
RPMI-8226 = test system: RPMI-8226
RXF 393 = test system: RXF 393
SF-268 = test system: SF-268
SF-295 = test system: SF-295
SF-539 = test system: SF-539
SK-MEL-28 = test system: SK-MEL-28
SK-MEL-2 = test system: SK-MEL-2
SK-MEL-5 = test system: SK-MEL-5
SK-OV-3 = test system: SK-OV-3
SN12C = test system: SN12C
SNB-19 = test system: SNB-19
SNB-75 = test system: SNB-75
SR = test system: SR
SW-620 = test system: SW-620
T47D = test system: T47D
TK-10 = test system: TK-10
U-251 = test system: U-251
UACC-257 = test system: UACC-257
UACC-62 = test system: UACC-62
UO-31 = test system: UO-31
HL-60 = test system: HL-60
Hs-578T = test system: Hs-578T

COC(=O)[C@H](CCSC)NC(=O)c1ccc(CNC(=O)/C(C)=C/c2ccccc2)cc1
GI50 (786-0): 20.8 µM (inactive)
GI50 (A498): > 100 µM (inactive)
GI50 (A549): 52 µM (inactive)
GI50 (ACHN): 44.3 µM (inactive)
GI50 (BT-549): 24.7 µM (inactive)
GI50 (CAKI-1): 30.6 µM (inactive)
GI50 (CCRF-CEM): > 100 µM (inactive)
GI50 (COLO 205): > 100 µM (inactive)
GI50 (DU-145): 37.9 µM (inactive)
GI50 (EKVX): 83.2 µM (inactive)
GI50 (HCC 2998): 9.48 µM (inactive)
GI50 (HCT-116): 50.9 µM (inactive)
GI50 (HCT-15): > 100 µM
GI50 (HOP-62): 21.8 µM (inactive)
GI50 (HOP-92): 25.8 µM (inactive)
GI50 (HT-29): 21 µM (inactive)
GI50 (IGROV-1): 50.1 µM (inactive)
GI50 (K562): > 100 µM (inactive)
GI50 (KM12): 82.4 µM (inactive)
GI50 (LOX IMVI): 33.1 µM (inactive)
GI50 (M14): 30.8 µM (inactive)
GI50 (MCF7): 80.2 µM (inactive)
GI50 (MDA-MB-231): 46.8 µM (inactive)
GI50 (MDA-MB-435): 74.5 µM (inactive)
GI50 (MDA-N): 55.6 µM (inactive)
GI50 (MOLT-4): > 100 µM (inactive)
GI50 (Malme-3M): 15.3 µM (inactive)
GI50 (NCI-H226): > 100 µM (inactive)
GI50 (NCI-H23): 45.8 µM (inactive)
GI50 (NCI-H460): 26.6 µM (inactive)
GI50 (NCI-H522): 10.8 µM (inactive)
GI50 (NCI/ADR-RES): 25.9 µM (inactive)
GI50 (OVCAR-3): 60.8 µM (inactive)
GI50 (OVCAR-4): 31.1 µM (inactive)
GI50 (OVCAR-5): 97.1 µM (inactive)
GI50 (OVCAR-8): 23.3 µM (inactive)
GI50 (PC-3): 47 µM (inactive)
GI50 (RPMI-8226): > 100 µM (inactive)
GI50 (RXF 393): 15.8 µM (inactive)
GI50 (SF-268): 25.8 µM (inactive)
GI50 (SF-295): 48.5 µM (inactive)
GI50 (SF-539): 26.5 µM (inactive)
GI50 (SK-MEL-28): 24.7 µM (inactive)
GI50 (SK-MEL-2): 20.7 µM (inactive)
GI50 (SK-MEL-5): 34.8 µM (inactive)
GI50 (SK-OV-3): 39.4 µM (inactive)
GI50 (SN12C): 88.1 µM (inactive)
GI50 (SNB-19): 24.7 µM (inactive)
GI50 (SNB-75): 3.81 µM (inactive)
GI50 (SR): 92.7 µM (inactive)
GI50 (SW-620): 47 µM (inactive)
GI50 (T47D): 21.8 µM (inactive)
GI50 (TK-10): > 100 µM (inactive)
GI50 (U-251): 31 µM (inactive)
GI50 (UACC-257): 20.7 µM (inactive)
GI50 (UACC-62): 32.3 µM (inactive)
GI50 (UO-31): 43.5 µM (inactive)

COC(=O)c1ccccc1CC1Cc2c(C)ccc(C)c2C1=O (stereo unspecified)
GI50 (786-0): 36.3 µM (inactive)
GI50 (A498): 25.8 µM (inactive)
GI50 (A549): 40.2 µM (inactive)
GI50 (ACHN): 33.8 µM (inactive)
GI50 (BT-549): 34.5 µM (inactive)
GI50 (CAKI-1): 34.5 µM (inactive)
GI50 (CCRF-CEM): 22.2 µM (inactive)
GI50 (COLO 205): 19.1 µM (inactive)
GI50 (DU-145): 50.5 µM (inactive)
GI50 (EKVX): 13.5 µM (inactive)
GI50 (HCC 2998): 36.9 µM (inactive)
GI50 (HCT-116): 16.5 µM (inactive)
GI50 (HCT-15): 24.6 µM
GI50 (HL-60): 23.3 µM (inactive)
GI50 (HOP-62): 60.1 µM (inactive)
GI50 (HOP-92): 17.2 µM (inactive)
GI50 (HT-29): 14.9 µM (inactive)
GI50 (Hs-578T): 33.3 µM (inactive)
GI50 (IGROV-1): 32 µM (inactive)
GI50 (K562): 33.5 µM (inactive)
GI50 (KM12): 23.6 µM (inactive)
GI50 (LOX IMVI): 16.5 µM (inactive)
GI50 (M14): 34.8 µM (inactive)
GI50 (MCF7): 11.2 µM (inactive)
GI50 (MDA-MB-231): 16 µM (inactive)
GI50 (MDA-MB-435): 23.1 µM (inactive)
GI50 (MOLT-4): 19.6 µM (inactive)
GI50 (Malme-3M): 22.4 µM (inactive)
GI50 (NCI-H226): 38.9 µM (inactive)
GI50 (NCI-H23): 15.4 µM (inactive)
GI50 (NCI-H460): 30.2 µM (inactive)
GI50 (NCI-H522): 21.6 µM (inactive)
GI50 (NCI/ADR-RES): 18.3 µM (inactive)
GI50 (OVCAR-3): 34.4 µM (inactive)
GI50 (OVCAR-4): 25.9 µM (inactive)
GI50 (OVCAR-5): 49.1 µM (inactive)
GI50 (OVCAR-8): 42.1 µM (inactive)
GI50 (PC-3): 34.8 µM (inactive)
GI50 (RXF 393): 21.4 µM (inactive)
GI50 (SF-268): 29.6 µM (inactive)
GI50 (SF-295): 28.7 µM (inactive)
GI50 (SF-539): 51.2 µM (inactive)
GI50 (SK-MEL-28): 48 µM (inactive)
GI50 (SK-MEL-2): 17.9 µM (inactive)
GI50 (SK-MEL-5): 17.8 µM (inactive)
GI50 (SK-OV-3): 38.6 µM (inactive)
GI50 (SN12C): 45.3 µM (inactive)
GI50 (SNB-19): 37.9 µM (inactive)
GI50 (SNB-75): 36.1 µM (inactive)
GI50 (SW-620): 35.6 µM (inactive)
GI50 (T47D): 21.4 µM (inactive)
GI50 (TK-10): 20.5 µM (inactive)
GI50 (U-251): 33.8 µM (inactive)
GI50 (UACC-257): 16.2 µM (inactive)
GI50 (UACC-62): 28.7 µM (inactive)
GI50 (UO-31): 25.8 µM (inactive)

CC(OC(C)(C)C)C(NC(=O)C(CCCCNC(=O)OC(C)(C)C)NC(=O)C(Cc1c[nH]c2ccccc12)NC(=O)C(Cc1ccccc1)NC(=O)OCc1ccccc1)C(=O)NC(Cc1ccccc1)C(=O)O (stereo unspecified) (Cbz-FWK(Boc)T(tBu)F-OH; configuration not given here)
GI50 (786-0): > 100 µM (inactive)
GI50 (A498): > 100 µM (inactive)
GI50 (A549): > 100 µM (inactive)
GI50 (ACHN): 69.3 µM (inactive)
GI50 (CAKI-1): > 100 µM (inactive)
GI50 (CCRF-CEM): 28.1 µM (inactive)
GI50 (COLO 205): 36.9 µM (inactive)
GI50 (DU-145): 61.1 µM (inactive)
GI50 (EKVX): > 100 µM (inactive)
GI50 (HCC 2998): 30.8 µM (inactive)
GI50 (HCT-116): 36.6 µM (inactive)
GI50 (HCT-15): 73.6 µM
GI50 (HL-60): > 100 µM (inactive)
GI50 (HOP-62): > 100 µM (inactive)
GI50 (HOP-92): > 100 µM (inactive)
GI50 (HT-29): 33.5 µM (inactive)
GI50 (Hs-578T): 0.9 µM (active)
GI50 (IGROV-1): 31 µM (inactive)
GI50 (K562): 28.8 µM (inactive)
GI50 (KM12): 43.3 µM (inactive)
GI50 (LOX IMVI): 29.4 µM (inactive)
GI50 (M14): > 100 µM (inactive)
GI50 (MCF7): 31.1 µM (inactive)
GI50 (MDA-MB-231): 40.2 µM (inactive)
GI50 (MDA-MB-435): 40.5 µM (inactive)
GI50 (MDA-N): 38.5 µM (inactive)
GI50 (MOLT-4): 28.1 µM (inactive)
GI50 (Malme-3M): > 100 µM (inactive)
GI50 (NCI-H226): 37.3 µM (inactive)
GI50 (NCI-H23): 61.7 µM (inactive)
GI50 (NCI-H460): > 100 µM (inactive)
GI50 (NCI-H522): 27.9 µM (inactive)
GI50 (NCI/ADR-RES): > 100 µM (inactive)
GI50 (OVCAR-3): 32.1 µM (inactive)
GI50 (OVCAR-4): 91 µM (inactive)
GI50 (OVCAR-5): 33.1 µM (inactive)
GI50 (OVCAR-8): 95.1 µM (inactive)
GI50 (PC-3): 34.8 µM (inactive)
GI50 (RPMI-8226): 43.5 µM (inactive)
GI50 (RXF 393): > 100 µM (inactive)
GI50 (SF-268): 45.7 µM (inactive)
GI50 (SF-295): 76.7 µM (inactive)
GI50 (SF-539): 31.8 µM (inactive)
GI50 (SK-MEL-28): 57.8 µM (inactive)
GI50 (SK-MEL-2): 41.7 µM (inactive)
GI50 (SK-MEL-5): 1.66 µM (inactive)
GI50 (SK-OV-3): 39.5 µM (inactive)
GI50 (SN12C): 25.8 µM (inactive)
GI50 (SNB-19): 37.7 µM (inactive)
GI50 (SNB-75): 15.7 µM (inactive)
GI50 (SR): 44.4 µM (inactive)
GI50 (SW-620): 75.2 µM (inactive)
GI50 (T47D): 28.4 µM (inactive)
GI50 (TK-10): > 100 µM (inactive)
GI50 (U-251): 37.9 µM (inactive)
GI50 (UACC-257): > 100 µM (inactive)
GI50 (UACC-62): 21 µM (inactive)
GI50 (UO-31): > 100 µM (inactive)
